Laboratory results as given in patent US8771973B2, “Methods for treating bleeding disorders using sulfated polysaccharides” (Baxter Healthcare S.A., priority 2004, dated 2014).

Experiments:
TFPI [1] = biological target: T1, TFPI (Homo sapiens, UniProt P10646); assay: dPT assay, inhibition of TFPI activity in Hem-A plasma without preincubation; format: biochemical; conditions: no preincubation; for clotting time, dPT: Hem-A + TFPI, HemA + TFPI 183, alone 45 seconds
T1 construct: purchased American Diagnostica (Stamford, Conn.)
T1 sequence (P10646 29-304): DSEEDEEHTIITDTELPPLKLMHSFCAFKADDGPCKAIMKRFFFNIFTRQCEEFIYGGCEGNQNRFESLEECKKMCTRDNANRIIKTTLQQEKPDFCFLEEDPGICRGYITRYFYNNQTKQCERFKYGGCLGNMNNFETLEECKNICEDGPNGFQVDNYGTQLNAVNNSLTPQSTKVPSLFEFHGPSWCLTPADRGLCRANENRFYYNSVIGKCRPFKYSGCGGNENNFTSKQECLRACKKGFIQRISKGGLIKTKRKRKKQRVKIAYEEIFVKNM
Procedure: (§1) The dPT assay used was a modified standard clinical PT assay (Nordfang et al. (1991) Thromb Haemost 66:464-467; Welsch et al. (1991) Thrombosis Research 64: 213-222). SIMPLASTIN EXCEL thromboplastin reagent (Organon Teknika) was reconstituted with the manufacturer's diluent and further diluted 1:100 in 0.9% saline. The thromboplastin reagent, 25 mM CaCl2, and plasma samples were pre-warmed to 37° C. before initiating the assay. 100 μl of thawed plasma was aliquoted into microcentrifuge tubes. […] 100 μl of the diluted thromboplastin reagent and 100 μl of 25 mM CaCl2 were added to fibrin cups (Fisher) prewarmed to 37° C. 100 μl of plasma (normal or hemophilic) containing the test agent or saline control was added to the fibrin cups containing the thromboplastin reagent and CaCl2 to initiate clotting. The time for plasma clotting was measured with a BBL FIBROSYSTEM fibrometer.
Experiments were repeated without a preincubation of the sulfated polysaccharides with TFPI prior to exposure to plasma. To extend the stringency of the test for NASP inhibition of TFPI activity, TFPI was added to the plasma before the NASP was added.

[2] = system: Hem-A plasma containing 1.25% FACT plasma; assay: aPTT assay, NASPs in 1.25% FACT diluted in Hem-A plasma; format: biochemical, human; conditions: for concentration producing approximately 50% prolongation in clotting time, fold higher than for heparin: APTT, Hem-A plasma
Procedure: Activated Partial Thromboplastin Time (aPTT) Assay The aPTT assay was performed as described previously with modifications (PDR Staff Physicians' Desk Reference. 2004, Anderson Lo, Barrowcliffe, T. W., Holmer, E., Johnson, E. A., Sims, G. E. C. Thromb. Res. 1976; 9:575-580). 25 mM CaCl2 and fibrin cups (Fisher) were pre-warmed to 37° C. 0.1 ml of thawed human plasma (normal or hemophilic) was added to warmed test tubes. 5 μl of saline (e.g. Sigma) or 5 μl of test agent (e.g., NASP) dissolved in saline was incubated with 95 μl of plasma for 30 minutes at room temperature. APTT reagent (e.g. Organon Teknika) was reconstituted in 3 ml distilled water and 0.1 ml of the reconstituted solution containing the APTT reagent was added to each test tube. 0.2 ml of plasma containing the test agent or saline control and aPTT reagent were transferred from test tubes to pre-warmed fibrin cups and incubated for 2-3 minutes. 0.1 ml of pre-warmed 25 mM CaCl2 was added to initiate clotting, and the time for plasma clotting was measured with a BBL FIBROSYSTEM fibrometer.
The effect of NASPs on the clotting time of plasma was determined as follows: 5 μl of a NASP was added to 95 μl of 1.25% FACT diluted in human Hem-A plasma and incubated at room temperature for 30 minutes. aPTT assays were performed to determine plasma clotting time as described in Example 1.

[3] = system: Factor VII-deficient plasma; assay: dPT assay, Factor VII-deficient plasma in absence of exogenous TFPI; format: biochemical, human; conditions: FVII-deficient plasma, no NASP + 0.1 nM FVIIa 173 seconds
Procedure: as §1
Regulation of clotting in Factor VII-deficient plasma was also evaluated in dPT assays. […] Addition of FVIIa to approximately 0.1 nM restored the clotting time to about 150 seconds (data not shown). Such a variation in clotting time shown in the dPT assay mimics some forms of human factor VII-deficiency. Titration of fucoidan and PPS into FVII-deficient plasma accelerated clotting times.

Hem-A plasma = assay: dPT assay, anti-coagulant activity of NASPs in Hem-A plasma; format: biochemical, human; conditions: for clotting time, dPT: Hem-A plasma without NASP 41.5 seconds; for concentration for 50% prolongation of clotting time, fold higher than heparin: dPT, Hem-A plasma
Procedure: as §1
Test compounds were diluted to 100 μM, 10 μM, 2 μM and 200 nM. For each test compound, 12.5 μl of a diluted solution containing the test compound was added to 237.5 μl of Hem-A plasma and incubated at room temperature. 100 μl of plasma containing the test compound was removed for dPT assays of plasma clotting time as described in Example 2.

TFPI [4] = biological target: T1, TFPI; assay: dPT assay, inhibition of TFPI activity in Hem-A plasma, TFPI preincubated with NASP; format: biochemical; conditions: Hem-A + TFPI, preincubation, plasma alone 44, + TFPI 151 seconds
Procedure: as §1
Inhibition of TFPI activity by NASPs was assessed in dPT clotting assays with normal or hemophilic plasma and added recombinant TFPI. Diluted recombinant TFPI was preincubated with NASPs for 5 minutes at room temperature before plasma was added. After addition of plasma, the mixture was incubated for an additional 25 minutes followed by dPT initiation.

| Substance | clotting time, dPT (TFPI [1]; 0.8 nM) [s] | clotting time, dPT (TFPI [1]; 4 nM) [s] | clotting time, dPT (TFPI [1]; 20 nM) [s] | clotting time, dPT (TFPI [1]; 100 nM) [s] | clotting time, dPT (TFPI [1]; 500 nM) [s] | clotting time, aPTT ([2]; 0.8 nM) [s] | clotting time, aPTT ([2]; 4 nM) [s] | clotting time, aPTT ([2]; 20 nM) [s] | clotting time, aPTT ([2]; 100 nM) [s] | concentration producing approximately 50% prolongation in clotting time, fold higher than for heparin [2] [fold] | clotting time, dPT ([3]; 0.8 nM) [s] | clotting time, dPT ([3]; 4 nM) [s] | clotting time, dPT ([3]; 20 nM) [s] | clotting time, dPT ([3]; 100 nM) [s] | clotting time, dPT ([3]; 500 nM) [s] | clotting time, dPT (Hem-A plasma; 10 nM) [s] | clotting time, dPT (Hem-A plasma; 100 nM) [s] | clotting time, dPT (Hem-A plasma; 500 nM) [s] | concentration for 50% prolongation of clotting time, fold higher than heparin (Hem-A plasma) | clotting time, dPT (TFPI [4]; 0.16 nM) [s] | also measured |
| --- | --- | --- | --- | --- | --- | --- | --- | --- | --- | --- | --- | --- | --- | --- | --- | --- | --- | --- | --- | --- | --- |
| Fucoidan | 210 | 78 | 59 | 54 | 90 | 70 | 71 | 75 | 119 | 10 | 168 | 147 | 120 | 74 | 111 | 39 | 38 | 60 | approximately 10 fold | 130 | concentration window for significant clotting acceleration (TFPI [1]; Hem A plasma + TFPI): greater than 100 fold; clotting time, aPTT ([2]; 0.16 nM): 71 s; clotting time, dPT (TFPI [4]; 0.8 nM): 108 s; clotting time, dPT (TFPI [4]; 4 nM): 72 s; clotting time, dPT (TFPI [4]; 20 nM): 54 s; clotting time, dPT (TFPI [4]; 100 nM): 46 s; clotting time, dPT (TFPI [4]; 500 nM): 75 s |
| Pentosan Polysulphate Sodium [PPS] | 192 | 156 | 81 | 76 | 73 | 70 | 71 | 72 | 80 | 100 | 198 | 181 | 159 | 142 | 113 | 39 | 37 | 40 | ~100 fold | 158 | clotting time, aPTT ([2]; 500 nM): 113 s; clotting time, dPT (Hem-A plasma; 5000 nM): 70 s; clotting time, dPT (TFPI [4]; 0.8 nM): 111 s; clotting time, dPT (TFPI [4]; 4 nM): 91 s; clotting time, dPT (TFPI [4]; 20 nM): 55 s; clotting time, dPT (TFPI [4]; 100 nM): 57 s; clotting time, dPT (TFPI [4]; 500 nM): 74 s |
